The record followed here is EPA's aquatic toxicity sets.

One series concerns Daphnia magna. Nature of the series: 48 h LC50 (-log10 mol/L); higher = more toxic.
The next series relates to Tetrahymena pyriformis. Nature of the series: 48 h IGC50 (-log10 mol/L); higher = more toxic.
A further series relates to Pimephales promelas. Briefly: 96 h LC50 (-log10 mol/L); higher = more toxic.

Turning to `CCc1nc(N)nc(N)c1-c1ccc(Cl)cc1`, the “48 h LC50 (-log10 mol/L)” value with Daphnia magna stood at 4.63.

For `Clc1ccc(Cl)c(-c2cc(Cl)ccc2Cl)c1`, the “48 h LC50 (-log10 mol/L)” value with Daphnia magna was determined as 6.99.

For the compound `Cc1cc(C)c(C)cc1C`, the “48 h LC50 (-log10 mol/L)” value with Daphnia magna amounted to 5.45.

Turning to `O=C1CN(/N=C/c2ccc([N+](=O)[O-])o2)C(=O)N1`, in the series with Daphnia magna, the “48 h LC50 (-log10 mol/L)” value came out at 3.51.

With `COc1ccc2nc(S(=O)Cc3ncc(C)c(OC)c3C)[nH]c2c1` (centres undefined), the “48 h LC50 (-log10 mol/L)” value in the series on Daphnia magna was determined as 3.59.

In the case of `NC(=O)N1c2ccccc2C=Cc2ccccc21`, the “48 h LC50 (-log10 mol/L)” value with Daphnia magna was 4.23.

Turning to `CCCCOCCOCCOCc1cc2c(cc1CCC)OCO2`, the “48 h LC50 (-log10 mol/L)” value in the series with Daphnia magna is 5.29.

`c1ccc2c(c1)ccc1ccccc12`: the “48 h LC50 (-log10 mol/L)” value in the series on Daphnia magna is 5.41.

Regarding `c1ccc2c(c1)ccc1sc3ccccc3c12`, the “48 h LC50 (-log10 mol/L)” value in the series with Daphnia magna came out at 6.03.

With `c1ccc2c(c1)cc1ccc3cccc4ccc2c1c34`, the “48 h LC50 (-log10 mol/L)” value with Daphnia magna stood at 6.

Regarding `COCC(C)O` (centres undefined), the “48 h LC50 (-log10 mol/L)” value in the series with Daphnia magna was 0.59.

Turning to `CC[C@H]1OC(=O)[C@H](C)[C@@H](O[C@H]2C[C@@](C)(OC)[C@@H](O)[C@H](C)O2)[C@H](C)[C@@H](O[C@@H]2O[C@H](C)C[C@H](N(C)C)[C@H]2O)[C@](C)(O)C[C@@H](C)CN(C)[C@H](C)[C@@H](O)[C@]1(C)O`, the “48 h LC50 (-log10 mol/L)” value in the series with Daphnia magna amounted to 3.79.

For the compound `CCCCC(CC)COP(=O)(Oc1ccccc1)Oc1ccccc1` (centres undefined), the “48 h LC50 (-log10 mol/L)” value with Daphnia magna stood at 6.38.

Turning to `S=P(N1CC1)(N1CC1)N1CC1`, the “48 h LC50 (-log10 mol/L)” value with Daphnia magna stood at 2.54.

As for `CN1C(=O)CN=C(c2ccccc2)c2cc(Cl)ccc21`, in the series with Daphnia magna, the “48 h LC50 (-log10 mol/L)” value came out at 4.82.

With `ClC1=C(Cl)[C@]2(Cl)[C@@H]3[C@@H](Cl)[C@H]4O[C@H]4[C@@H]3[C@@]1(Cl)C2(Cl)Cl`, the “48 h LC50 (-log10 mol/L)” value with Daphnia magna amounted to 6.21.

For the compound `Clc1ccc(-c2ccc(Cl)c(Cl)c2)cc1Cl`, in the series on Daphnia magna, the “48 h LC50 (-log10 mol/L)” value is 8.16.

`COc1ccccc1`: the “48 h LC50 (-log10 mol/L)” value in the series with Daphnia magna came out at 3.43.

`O=C(O)c1cc(Oc2ccc(C(F)(F)F)cc2Cl)ccc1[N+](=O)[O-]`: the “48 h LC50 (-log10 mol/L)” value with Daphnia magna is 4.26.

As to `COCC(C)OC(C)=O` (centres undefined), the “48 h LC50 (-log10 mol/L)” value in the series with Daphnia magna was 2.51.

On to `CCCC(=O)Nc1ccc(OCC(O)CNC(C)C)c(C(C)=O)c1` (centres undefined), for which, in the series with Daphnia magna, the “48 h LC50 (-log10 mol/L)” value was 3.82.

With `c1ccc2c(c1)Cc1ccccc1O2`, the “48 h LC50 (-log10 mol/L)” value in the series with Daphnia magna stood at 3.95.

On to `CC(c1ccc(Cl)cc1)c1ccc(Cl)cc1`, for which the “48 h LC50 (-log10 mol/L)” value with Daphnia magna stood at 6.86.

Take `CCN(CC)C(=O)SCc1ccc(Cl)cc1`: the “48 h LC50 (-log10 mol/L)” value in the series on Daphnia magna worked out at 5.55.

As for `COc1c(O)cc(Cl)c(Cl)c1Cl`, the “48 h LC50 (-log10 mol/L)” value in the series on Daphnia magna turned out to be 5.53.

On to `c1ccc2cc3c(ccc4ccccc43)cc2c1`, for which the “48 h LC50 (-log10 mol/L)” value with Daphnia magna came to 6.22.

As to `FCC(F)(F)F`, the “48 h LC50 (-log10 mol/L)” value with Daphnia magna was 2.02.

With `c1ccc2cnccc2c1`, the “48 h LC50 (-log10 mol/L)” value in the series with Daphnia magna came to 3.71.

In the case of `CC(=O)C(C)C`, in the series on Tetrahymena pyriformis, the “48 h IGC50 (-log10 mol/L)” value is 1.83. Also, in the series on Pimephales promelas, the “96 h LC50 (-log10 mol/L)” value is 2.

Turning to `Cc1cccc(O)c1`, the “48 h IGC50 (-log10 mol/L)” value with Tetrahymena pyriformis came out at 2.92. Besides, in the series with Pimephales promelas, the “96 h LC50 (-log10 mol/L)” value came out at 3.29.

As for `CC(C)C(O)C(C)C`, the “48 h IGC50 (-log10 mol/L)” value in the series with Tetrahymena pyriformis is 2.29. Besides, the “96 h LC50 (-log10 mol/L)” value with Pimephales promelas came to 2.85.

Regarding `CCCCCCC1CCC(=O)O1` (centres undefined), in the series on Tetrahymena pyriformis, the “48 h IGC50 (-log10 mol/L)” value came to 3.49. Moreover, the “96 h LC50 (-log10 mol/L)” value in the series on Pimephales promelas was found to be 3.98.

In the case of `C=CC(=O)OCC`, the “48 h IGC50 (-log10 mol/L)” value in the series on Tetrahymena pyriformis worked out at 3.52. The “96 h LC50 (-log10 mol/L)” value in the series with Pimephales promelas was determined as 4.6.

With `CN1CCNCC1`, the “48 h IGC50 (-log10 mol/L)” value in the series on Tetrahymena pyriformis is 2.04. Besides, the “96 h LC50 (-log10 mol/L)” value with Pimephales promelas stood at 1.64.

For `COc1cc(OC)c(OC)cc1C=O`, the “48 h IGC50 (-log10 mol/L)” value with Tetrahymena pyriformis came out at 2.9. The “96 h LC50 (-log10 mol/L)” value with Pimephales promelas came out at 3.6.

As to `O=Cc1ccc(Oc2ccccc2)cc1`, in the series with Tetrahymena pyriformis, the “48 h IGC50 (-log10 mol/L)” value was determined as 4.26. Further, in the series with Pimephales promelas, the “96 h LC50 (-log10 mol/L)” value turned out to be 4.63.

As for `c1cc(CCc2ccncc2)ccn1`, the “48 h IGC50 (-log10 mol/L)” value with Tetrahymena pyriformis was determined as 2.97. Besides, the “96 h LC50 (-log10 mol/L)” value with Pimephales promelas amounted to 3.09.

`O=[N+]([O-])c1c(Cl)cc(Cl)c([N+](=O)[O-])c1Cl`: the “48 h IGC50 (-log10 mol/L)” value with Tetrahymena pyriformis is 5.19. The “96 h LC50 (-log10 mol/L)” value in the series with Pimephales promelas turned out to be 6.09.

With `N#CC(Br)Br`, in the series with Tetrahymena pyriformis, the “48 h IGC50 (-log10 mol/L)” value is 5.4. Besides, in the series with Pimephales promelas, the “96 h LC50 (-log10 mol/L)” value came out at 5.56.

Consider `Cc1ccc(N)c([N+](=O)[O-])c1`, for which the “48 h IGC50 (-log10 mol/L)” value with Tetrahymena pyriformis came to 3.37. For the same compound, in the series on Pimephales promelas, the “96 h LC50 (-log10 mol/L)” value was 3.79.

For `Cc1cccc(Cl)n1`, in the series with Tetrahymena pyriformis, the “48 h IGC50 (-log10 mol/L)” value came out at 2.52. The “96 h LC50 (-log10 mol/L)” value in the series with Pimephales promelas turned out to be 2.74.

Consider `OCCCCl`, for which the “48 h IGC50 (-log10 mol/L)” value in the series on Tetrahymena pyriformis was 1.6. For the same compound, in the series with Pimephales promelas, the “96 h LC50 (-log10 mol/L)” value was 2.07.

On to `CC(C)CC=O`, for which the “48 h IGC50 (-log10 mol/L)” value in the series with Tetrahymena pyriformis came to 2.67. Besides, the “96 h LC50 (-log10 mol/L)” value with Pimephales promelas is 4.42.

Turning to `CC(C)(C)c1cc(C(C)(C)C)c(O)c(C(C)(C)C)c1`, the “48 h IGC50 (-log10 mol/L)” value in the series with Tetrahymena pyriformis was 3.36. Moreover, the “96 h LC50 (-log10 mol/L)” value in the series with Pimephales promelas amounted to 6.63.

Consider `CC(C)O`, for which the “48 h IGC50 (-log10 mol/L)” value in the series with Tetrahymena pyriformis came out at 1.12. In addition, the “96 h LC50 (-log10 mol/L)” value with Pimephales promelas was determined as 0.778.

For `ClC(Cl)(Cl)Cl`, in the series with Tetrahymena pyriformis, the “48 h IGC50 (-log10 mol/L)” value stood at 2.98. The “96 h LC50 (-log10 mol/L)” value in the series on Pimephales promelas was determined as 3.57.

For `C=CC(=O)OCCO`, in the series with Tetrahymena pyriformis, the “48 h IGC50 (-log10 mol/L)” value stood at 3.69. In the series on Pimephales promelas, the “96 h LC50 (-log10 mol/L)” value turned out to be 4.38.

On to `CC(=O)c1cccn1C`, for which, in the series on Tetrahymena pyriformis, the “48 h IGC50 (-log10 mol/L)” value came to 2.31. Besides, in the series with Pimephales promelas, the “96 h LC50 (-log10 mol/L)” value amounted to 2.9.

As to `CCCCCOCCCCC`, the “48 h IGC50 (-log10 mol/L)” value with Tetrahymena pyriformis stood at 4.09. Also, the “96 h LC50 (-log10 mol/L)” value with Pimephales promelas is 4.71.

Regarding `COC(=O)c1cc(Cl)ccc1Cl`, in the series with Tetrahymena pyriformis, the “48 h IGC50 (-log10 mol/L)” value worked out at 3.81. Besides, in the series on Pimephales promelas, the “96 h LC50 (-log10 mol/L)” value came out at 4.17.

Consider `CCCCCC(=O)O`, for which the “48 h IGC50 (-log10 mol/L)” value in the series on Tetrahymena pyriformis turned out to be 2.79. Further, the “96 h LC50 (-log10 mol/L)” value with Pimephales promelas is 2.84.
